{"source": "patent US7090872B2", "about": "“Antioxidant, skin preparation for external use, cosmetic and food” (Nichirei Biosciences Inc., priority 2002, dated 2006)", "experiment": "Antioxidative activity measurement using linoleic acid (ferric thiocyanate method)", "conditions": "0.023 mg of vitamin C (amount contained in 0.4 mg of the solid); control = 100%", "procedure": "Next, the antioxidative activity of the obtained extract was measured by antioxidative activity measurement using linoleic acid (ferric thiocyanate method).\nSpecifically, a mixture of 0.4 mg of the acerola seed extract, 2 ml of 99.5% ethanol, and 2 ml of distilled water was mixed with a reaction liquid composed of 2 ml of 2.5% (w/v) linoleic acid (99.5% ethanol solution) and 4 ml of a 0.05 M phosphate buffer (pH 7.0), and placed in a brown threaded bottle, to thereby prepare 10 ml of a test liquid. On the other hand, test liquids as positive controls were prepared in the same way using α-tocopherol or BHA in place of the acerola seed extract at the same content in the reaction liquid. […] Samples were taken out at intervals, and measured by the following methods. […]\nFirst, to a mixture of 0.1 ml of the sample, 9.7 ml of 75% ethanol, and 0.1 ml of a 30% aqueous solution of ammonium rhodanide, 0.1 ml of 2×10^−2 M ferrous chloride (3.5% hydrochloric acid solution) was added, and exactly 3 minutes later, the absorbance at 500 nm was measured. The same measurement was made with the blanks, and Δabsorbance was taken according to the following formula: Δ absorbance=(absorbance of main sample)−(absorbance of blank). The absorbance increases with oxidation of the sample, and after reaching the maximum, decreases with consumption of the sample to be oxidized. […]"}
{"smiles": "O=C1O[C@H]([C@@H](O)CO)C(O)=C1O", "note": "[vitamin C]", "values": [{"measurement": "degree of oxidation on day 7", "result": 115.8, "unit": "%"}]}
